Consider five molecules from PubChem BioAssay AID2117 (The Scripps Research Institute Molecular Screening Center, 2009).

What all share (test): ROR modulator nuclear receptor reporter panel, late-stage follow-up, ROR modulator project, cell-based, luciferase reporter (AID 2117)
In general terms: A reporter such as luciferase makes a cellular process visible.

Assay [1] deals with Bile acid receptor (Homo sapiens) (UniProt Q96RI1). The note with it: ROR/LXR/VP16, FXR, activation potency.
Assay [2] has as its target Oxysterols receptor LXR-beta (Homo sapiens) (UniProt P55055). The note with it: ROR/LXR/VP16, activation potency.
Assay [3] addresses Glucose-6-phosphatase catalytic subunit 1 (Homo sapiens) (UniProt P35575). The settings on record: ROR/LXR/VP16, G6Pase Promoter.

As a reminder, the EC50 is the midpoint of the concentration-response curve. Higher therefore signals weaker potency. What is called IC50 is the concentration needed to halve the response being measured.

SMILES strings stand for the structures.

Oxysterols receptor LXR-beta (Homo sapiens), sequence (P55055 whole entry, looked up): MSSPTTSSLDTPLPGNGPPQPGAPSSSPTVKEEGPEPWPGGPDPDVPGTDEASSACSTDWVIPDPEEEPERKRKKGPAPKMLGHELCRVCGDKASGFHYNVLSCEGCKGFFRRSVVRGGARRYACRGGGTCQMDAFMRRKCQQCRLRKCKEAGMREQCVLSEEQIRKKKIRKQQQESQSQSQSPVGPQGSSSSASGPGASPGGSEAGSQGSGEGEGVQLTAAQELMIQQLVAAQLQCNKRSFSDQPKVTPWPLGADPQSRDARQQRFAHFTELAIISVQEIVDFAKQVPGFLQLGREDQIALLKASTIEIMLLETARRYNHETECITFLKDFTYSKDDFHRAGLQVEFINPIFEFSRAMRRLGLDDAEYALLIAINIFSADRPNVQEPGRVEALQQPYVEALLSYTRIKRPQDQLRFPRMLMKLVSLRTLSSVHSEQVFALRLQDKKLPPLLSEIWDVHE
Bile acid receptor (Homo sapiens), sequence (Q96RI1 whole entry, looked up): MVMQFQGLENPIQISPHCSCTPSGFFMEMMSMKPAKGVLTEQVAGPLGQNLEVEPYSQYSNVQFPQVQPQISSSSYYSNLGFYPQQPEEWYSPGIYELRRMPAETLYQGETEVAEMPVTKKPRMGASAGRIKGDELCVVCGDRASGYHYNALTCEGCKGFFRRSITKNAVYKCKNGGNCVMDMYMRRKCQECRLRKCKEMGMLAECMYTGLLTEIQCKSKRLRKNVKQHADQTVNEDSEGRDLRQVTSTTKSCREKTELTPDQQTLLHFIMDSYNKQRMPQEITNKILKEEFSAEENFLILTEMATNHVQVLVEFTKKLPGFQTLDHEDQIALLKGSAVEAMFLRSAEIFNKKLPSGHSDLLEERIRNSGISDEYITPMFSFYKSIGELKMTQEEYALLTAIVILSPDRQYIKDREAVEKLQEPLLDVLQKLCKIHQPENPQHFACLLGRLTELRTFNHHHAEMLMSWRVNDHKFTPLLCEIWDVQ
Glucose-6-phosphatase catalytic subunit 1 (Homo sapiens), sequence (P35575 whole entry, looked up): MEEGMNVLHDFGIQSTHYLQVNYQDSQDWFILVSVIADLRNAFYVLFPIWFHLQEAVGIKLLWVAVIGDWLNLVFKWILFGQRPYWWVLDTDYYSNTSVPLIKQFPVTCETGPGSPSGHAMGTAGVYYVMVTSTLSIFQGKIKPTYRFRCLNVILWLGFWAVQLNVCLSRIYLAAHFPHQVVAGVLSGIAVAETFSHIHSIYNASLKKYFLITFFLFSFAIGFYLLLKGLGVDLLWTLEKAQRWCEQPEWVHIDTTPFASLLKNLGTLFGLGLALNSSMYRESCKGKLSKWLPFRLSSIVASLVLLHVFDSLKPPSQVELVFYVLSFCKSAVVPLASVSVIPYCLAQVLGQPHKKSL

For the molecule `O=S(=O)(Nc1ccc(C(O)(C(F)(F)F)C(F)(F)F)cc1)c1cccc2ccccc12`, the EC50 in assay [1] worked out at 12 µM; in assay [2] it was 5.7 µM.
For the molecule `CC(C)(C)c1ccc(S(=O)(=O)Nc2ccc(C(O)(C(F)(F)F)C(F)(F)F)cc2)cc1`, the EC50 in assay [1] and in assay [2] was above 20 µM in each case. Besides, the 50% inhibitory concentration (IC50) in assay [3] was 8.4 µM.
With `O=S(=O)(Nc1ccc(C(O)(C(F)(F)F)C(F)(F)F)cc1)c1ccc(Cl)c2nonc12`, the EC50 in assay [1] was above 20 µM; in assay [2], 12 µM.
The matching figures for `O=S(=O)(Nc1ccc(C(O)(C(F)(F)F)C(F)(F)F)cc1)c1cccc2cccnc12`: above 20 µM and above 6 µM.
On to `COc1cccc(S(=O)(=O)Nc2ccc(C(O)(C(F)(F)F)C(F)(F)F)cc2)c1`, for which the EC50 in assay [1] is above 20 µM; in assay [2] it was 18 µM.
